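48-hour exposure; five concentrations; linearly interpolated endpoints. GI50: concentration for 50% inhibition of growth. TGI: concentration producing complete growth inhibition.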
Legend:
Test in all cases: inhibition of tumour cell growth, NCI panel, 48 h
ACHN renal = system: ACHN renal
HCC-2998 colon = system: HCC-2998 colon
MALME-3M melanoma = system: MALME-3M melanoma
MDA-MB-435 = system: MDA-MB-435
MOLT-4 leukemia = system: MOLT-4 leukemia
SF-539 CNS = system: SF-539 CNS
SK-MEL-28 melanoma = system: SK-MEL-28 melanoma
SK-OV-3 ovarian = system: SK-OV-3 ovarian
SNB-75 CNS = system: SNB-75 CNS
T-47D breast = system: T-47D breast

| SMILES | GI50 (ACHN renal) [nM] | TGI (ACHN renal) [µM] | GI50 (HCC-2998 colon) [nM] | TGI (HCC-2998 colon) [nM] | GI50 (MALME-3M melanoma) [nM] | TGI (MALME-3M melanoma) [µM] | GI50 (MDA-MB-435) [nM] | TGI (MDA-MB-435) [µM] | GI50 (MOLT-4 leukemia) [nM] | TGI (MOLT-4 leukemia) [µM] | GI50 (SF-539 CNS) [nM] | TGI (SF-539 CNS) [nM] | GI50 (SK-MEL-28 melanoma) [nM] | TGI (SK-MEL-28 melanoma) [µM] | GI50 (SK-OV-3 ovarian) [nM] | TGI (SK-OV-3 ovarian) [µM] | GI50 (SNB-75 CNS) [nM] | TGI (SNB-75 CNS) [µM] | GI50 (T-47D breast) [nM] | TGI (T-47D breast) [µM] |
| --- | --- | --- | --- | --- | --- | --- | --- | --- | --- | --- | --- | --- | --- | --- | --- | --- | --- | --- | --- | --- |
| C=CC[Se]C(=O)c1ccccc1OC(C)=O | 1760 | 3.21 | 1360 | 2880 | 1660 | 3.38 | 1720 | 3.35 | 2900 | 8.43 | 1470 | 2800 | 1850 | 3.53 | 1200 | 2.54 | 1380 | 2.72 | 2450 | 6.06 |
| O=C1OCC2=C1C(c1ccccc1)c1cc3c(cc1N2CCO)CCC3 (centres undefined) | 148 | > 25 | 115 | 941 | 60.9 | > 25 | 42.9 | 0.129 | 307 | > 25 | 73.2 | 966 | 168 | > 25 | 97 | 8.73 | 78.6 | > 25 | 92.2 | > 25 |
| CCOc1ccc(/C=N/Nc2cc(C)nc3ccc(Cl)cc23)cc1 | 1780 | 3.17 | 2190 | 3700 | 2020 | 3.6 | 1750 | 3.26 | 1890 | 3.85 | 1970 | 3400 | 1780 | 3.19 | 2860 | 7.29 | 1860 | 3.64 | 1940 | 3.8 |
| CNC(=O)c1cc(Oc2ccc3nc(NC(=O)c4cc(C(F)(F)F)cc(C(F)(F)F)c4)sc3c2)ccn1 | 3260 | 11.8 | 6630 | 24700 | 2030 | 6.65 | 3280 | 20.4 | 2620 | 12.4 | 3140 | 14800 | 3760 | 43.7 | 2520 | 7.98 | 3130 | 14.8 | 3040 | 9.17 |
| CCCCCCCCCCCCCCCCCC(=O)[O][Sn]([CH2]CCC)([CH2]CCC)[CH2]CCC | 163 | 0.334 | 139 | 279 | 141 | 0.327 | 149 | 0.441 | 237 | – | 181 | 377 | 159 | 0.31 | 143 | 0.288 | 124 | 0.269 | 124 | 0.293 |
| COC(=O)c1c2c(c[n+]([O-])c1C)C(=O)C(NCc1ccccc1)=CC2=O | 1020 | 2.2 | 604 | 2000 | 127 | 0.294 | 193 | 0.376 | 412 | 2.59 | 457 | 1670 | 1600 | 3.29 | 1980 | 4.79 | 1760 | 3.27 | 327 | 1.53 |
| N#CC(NC12CC3CC(CC(C3)C1)C2)c1ccccc1 (centres undefined) | – | > 100 | – | > 100000 | – | > 100 | – | > 100 | – | > 100 | – | > 100000 | – | > 100 | – | > 100 | – | > 100 | – | > 100 |
